# Laboratory results published in patent US10925856B2, “Methods and compositions involving bucindolol for the treatment of atrial fibrillation” (priority 2018, dated 2021).
# Key:
# [1] = Systolic blood pressure and heart rate by scheduled visit; format: in vivo, human
# Excerpt: Block is defined as the first of any of the following: 1) 3rd degree heart block (complete heart block); 2) any 2nd degree heart block with the presence of symptoms attributable to, and temporally correlated with the occurrence of heart block which include any of the following: Near-fainting or fainting (syncope)/Dizziness; Weakness or Fatigue; Shortness of breath; Chest pain; or 3) 2nd or 3rd degree heart block requiring implantation of a permanent pacemaker (with or without defibrillator). • Data source: • CVEVENT and AE eCRF forms. • Overall incidence and severity of treatment-emergent AEs/SAEs over time during the Total Study Period. Also events associated with device implantation. […] The AEs of special interest will be tabulated according to the following characteristics. • Development of treatment-emergent neoplastic conditions. • Progression or worsening of pre-study neoplastic conditions. • Progression or worsening of treatment-emergent neoplastic conditions. • Data source: • AE, NEOPLHX and NEOPLAS eCRF forms. • Clinical Chemistry and Hematology. • Visit collection: screen, start of follow-up Week 0 (protocol versions 1 and 2), Week 4 (protocol versions 3 and 4), Week 12 (protocol versions 3 and 4), Week 24, every 24 weeks during extension, end of treatment and end of study. […] Randomization Visit measurement prior to first dose will serve as the baseline. Will be analyzed at Week 0, 4, 12 and 24 visits as well as end of treatment and end of study. • Change from baseline to each analysis visit will be calculated and analyzed with descriptive statistics. • The numbers and percentages of patients with QTc increase from baseline exceeding 60 ms at any time point during the study. • Data source: • ECG eCRF form. • Vital signs and weight (data source: VITALS eCRF form). • Measured at every in-clinic visit. Randomization Visit measurement prior to first dose will serve as the baseline. Will be analyzed at Week 0, 4, 12 and 24 visits as well as end of treatment and end of study. • Change from baseline to each analysis visit will be calculated and analyzed with descriptive statistics. • Data source: • VITALS eCRF form. • Proportion of patients attaining target study drug dose during the Drug Titration Period. Will be calculated for all patients, those receiving β-blocker therapy prior to randomization and those not previously receiving β-blocker therapy. • Data Sources: • VISREC and DRUGLOG eCRF forms.
# plasma norepinephrine = experiment: Plasma norepinephrine (HPLC with electrochemical detection); settings: for Norepinephrine, ΔWeek 12 Mean ± SEM / Norepinephrine, ΔWeek 12 Median / Norepinephrine, ΔWeek 24 Mean ± SEM / Norepinephrine, ΔWeek 24 Median: change from baseline
# [2] = in vivo; cited from earlier work
# [3] = Europe excluding Hungary (n = 48)
smiles,measurement,setting,value
"COCCc1ccc(OCC(O)CNC(C)C)cc1 (stereo not shown) [metoprolol, metoprolol succinate, reference compound]",Heart rate reduction,"[1]; 4, 12 and 24 weeks",greater heart rate reduction
same,"Heart Rate, Baseline Mean ± SEM",[1]; in vivo,76.0 ± 1.5 bpm
same,"Heart Rate, Baseline Min, Max",[1]; in vivo,"43.0, 119"
same,"Systolic Blood Pressure, Baseline Mean ± SEM",[1]; in vivo,121.8 ± 1.4 mmHg
same,"Systolic Blood Pressure, Baseline Min, Max",[1]; in vivo,"90.0, 149"
same,"Plasma norepinephrine, Week 4 Mean",plasma norepinephrine; Canada,613 pg/mL
same,"Plasma norepinephrine, Week 4 Median",plasma norepinephrine; Canada,605 pg/mL
same,"Plasma norepinephrine, change from baseline to Week 4, Mean ±SEM",plasma norepinephrine; Canada,-97 pg/mL
same,"Plasma norepinephrine, change from baseline to Week 4, Median",plasma norepinephrine; Canada,-59 pg/mL
same,"Norepinephrine, Baseline Mean ± SD",plasma norepinephrine; Canada (n = 59),674 ± 429 pg/mL
same,"Norepinephrine, Baseline Median",plasma norepinephrine; Canada (n = 59),541 pg/mL
same,"Norepinephrine, Week 12 Mean ± SD",plasma norepinephrine; Canada (n = 59),577 ± 273 pg/mL
same,"Norepinephrine, Week 12 Median",plasma norepinephrine; Canada (n = 59),563 pg/mL
same,"Norepinephrine, Week 24 Mean ± SD",plasma norepinephrine; Canada (n = 59),722 ± 303 pg/mL
same,"Norepinephrine, Week 24 Median",plasma norepinephrine; Canada (n = 59),690 pg/mL
same,"Change in NE at Week 4, median (Q1, Q3)",plasma norepinephrine; Entire Cohort,"−10 (198,121) pg/ml"
same,"Plasma norepinephrine, Week 4 Mean",plasma norepinephrine; Entire Cohort,617 pg/mL
same,"Plasma norepinephrine, Week 4 Median",plasma norepinephrine; Entire Cohort,570 pg/mL
same,"Plasma norepinephrine, change from baseline to Week 4, Mean ±SEM",plasma norepinephrine; Entire Cohort,36 ± 32 pg/mL
same,"Plasma norepinephrine, change from baseline to Week 4, Median",plasma norepinephrine; Entire Cohort,-10 pg/mL
same,"Norepinephrine, Baseline Mean ± SD",plasma norepinephrine; Entire Cohort (n = 267),664 ± 359 pg/mL
same,"Norepinephrine, Baseline Median",plasma norepinephrine; Entire Cohort (n = 267),590 pg/mL
same,"Norepinephrine, Week 12 Mean ± SD",plasma norepinephrine; Entire Cohort (n = 267),605 ± 266 pg/mL
same,"Norepinephrine, Week 12 Median",plasma norepinephrine; Entire Cohort (n = 267),566 pg/mL
same,"Norepinephrine, Week 24 Mean ± SD",plasma norepinephrine; Entire Cohort (n = 267),690 ± 414 pg/mL
same,"Norepinephrine, Week 24 Median",plasma norepinephrine; Entire Cohort (n = 267),586 pg/mL
same,"Plasma norepinephrine, change from baseline to Week 4, Mean ±SEM","plasma norepinephrine; Entire Cohort, listed as Met",-36 pg/mL
same,"Plasma norepinephrine, Week 4 Mean",plasma norepinephrine; Europe excluding Hungary,676 pg/mL
same,"Plasma norepinephrine, Week 4 Median",plasma norepinephrine; Europe excluding Hungary,612 pg/mL
same,"Plasma norepinephrine, change from baseline to Week 4, Mean ±SEM",plasma norepinephrine; Europe excluding Hungary,-18 pg/mL
same,"Plasma norepinephrine, change from baseline to Week 4, Median",plasma norepinephrine; Europe excluding Hungary,-12 pg/mL
same,"Norepinephrine, Baseline Mean ± SD",plasma norepinephrine; [3],675 ± 250 pg/mL
same,"Norepinephrine, Baseline Median",plasma norepinephrine; [3],592 pg/mL
same,"Norepinephrine, Week 12 Mean ± SD",plasma norepinephrine; [3],640 ± 283 pg/mL
same,"Norepinephrine, Week 12 Median",plasma norepinephrine; [3],614 pg/mL
same,"Norepinephrine, Week 24 Mean ± SD",plasma norepinephrine; [3],904 ± 348 pg/mL
same,"Norepinephrine, Week 24 Median",plasma norepinephrine; [3],924 pg/mL
same,"Plasma norepinephrine, Week 4 Mean",plasma norepinephrine; Hungary,530 pg/mL
same,"Plasma norepinephrine, Week 4 Median",plasma norepinephrine; Hungary,460 pg/mL
same,"Plasma norepinephrine, change from baseline to Week 4, Mean ±SEM",plasma norepinephrine; Hungary,-35 pg/mL
same,"Plasma norepinephrine, change from baseline to Week 4, Median",plasma norepinephrine; Hungary,-70 pg/mL
same,"Norepinephrine, Baseline Mean ± SD",plasma norepinephrine; Hungary (n = 33),627 ± 258 pg/mL
same,"Norepinephrine, Baseline Median",plasma norepinephrine; Hungary (n = 33),571 pg/mL
same,"Norepinephrine, Week 12 Mean ± SD",plasma norepinephrine; Hungary (n = 33),716 ± 308 pg/mL
same,"Norepinephrine, Week 12 Median",plasma norepinephrine; Hungary (n = 33),590 pg/mL
same,"Norepinephrine, Week 24 Mean ± SD",plasma norepinephrine; Hungary (n = 33),716 ± 301 pg/mL
same,"Norepinephrine, Week 24 Median",plasma norepinephrine; Hungary (n = 33),668 pg/mL
same,"Plasma norepinephrine, Week 4 Mean",plasma norepinephrine; U.S.,616 pg/mL
same,"Plasma norepinephrine, Week 4 Median",plasma norepinephrine; U.S.,556 pg/mL
same,"Plasma norepinephrine, change from baseline to Week 4, Mean ±SEM",plasma norepinephrine; U.S.,-18 pg/mL
same,"Plasma norepinephrine, change from baseline to Week 4, Median",plasma norepinephrine; U.S.,+29 pg/ml
same,"Norepinephrine, Baseline Mean ± SD",plasma norepinephrine; U.S. (n = 127),664 ± 386 pg/mL
same,"Norepinephrine, Baseline Median",plasma norepinephrine; U.S. (n = 127),599 pg/mL
same,"Norepinephrine, Week 12 Mean ± SD",plasma norepinephrine; U.S. (n = 127),576 ± 246 pg/mL
same,"Norepinephrine, Week 12 Median",plasma norepinephrine; U.S. (n = 127),560 pg/mL
same,"Norepinephrine, Week 24 Mean ± SD",plasma norepinephrine; U.S. (n = 127),639 ± 472 pg/mL
same,"Norepinephrine, Week 24 Median",plasma norepinephrine; U.S. (n = 127),519 pg/mL
same,Within group NE change,"plasma norepinephrine; Week 4, any of the regions",not associated with a within group NE change
same,"Norepinephrine, ΔWeek 12 Mean ± SEM",plasma norepinephrine; Canada (n = 59),-111 ± 57 pg/mL
same,"Norepinephrine, ΔWeek 12 Median",plasma norepinephrine; Canada (n = 59),-85 pg/mL
same,"Norepinephrine, ΔWeek 24 Mean ± SEM",plasma norepinephrine; Canada (n = 59),18 ± 75 pg/mL
same,"Norepinephrine, ΔWeek 24 Median",plasma norepinephrine; Canada (n = 59),-10 pg/mL
same,"Norepinephrine, ΔWeek 12 Mean ± SEM",plasma norepinephrine; Entire Cohort (n = 267),-64 ± 30 pg/mL
same,"Norepinephrine, ΔWeek 12 Median",plasma norepinephrine; Entire Cohort (n = 267),-57 pg/mL
same,"Norepinephrine, ΔWeek 24 Mean ± SEM",plasma norepinephrine; Entire Cohort (n = 267),2 ± 33 pg/mL
same,"Norepinephrine, ΔWeek 24 Median",plasma norepinephrine; Entire Cohort (n = 267),-24 pg/mL
same,"Norepinephrine, ΔWeek 12 Mean ± SEM",plasma norepinephrine; [3],-52 ± 65 pg/mL
same,"Norepinephrine, ΔWeek 12 Median",plasma norepinephrine; [3],-76 pg/mL
same,"Norepinephrine, ΔWeek 24 Median",plasma norepinephrine; [3],232 pg/mL
same,"Norepinephrine, ΔWeek 12 Mean ± SEM",plasma norepinephrine; Hungary (n = 33),144 ± 89 pg/mL
same,"Norepinephrine, ΔWeek 12 Median",plasma norepinephrine; Hungary (n = 33),37 pg/mL
same,"Norepinephrine, ΔWeek 24 Mean ± SEM",plasma norepinephrine; Hungary (n = 33),148 ± 336 pg/mL
same,"Norepinephrine, ΔWeek 24 Median",plasma norepinephrine; Hungary (n = 33),-42 pg/mL
same,"Norepinephrine, ΔWeek 12 Mean ± SEM",plasma norepinephrine; U.S. (n = 127),-100 ± 43 pg/mL
same,"Norepinephrine, ΔWeek 12 Median",plasma norepinephrine; U.S. (n = 127),-66 pg/mL
same,"Norepinephrine, ΔWeek 24 Mean ± SEM",plasma norepinephrine; U.S. (n = 127),-46 ± 40 pg/mL
same,"Norepinephrine, ΔWeek 24 Median",plasma norepinephrine; U.S. (n = 127),-46 pg/mL
same,Reduction in NE,"plasma norepinephrine; week 12, entire cohort",57 pg/mL
same,Bioavailability,[2],approximately 50%
